In patent publication US5707648A, “Transparent liquid for encapsulated drug delivery” (LDS Technologies, Inc., priority 1995, dated 1998):

Legend:
[1] = compared with AVP or LVP; cited from earlier work
[2] = human, in vivo; cited from earlier work
plasma Factor VIII = test: Plasma Factor VIII levels following administration of dDAVP (dDAVP Dog Study); type: in vivo, Male beagle dogs; details: dogs; capsules with 13, 43 and 125 μg dDAVP, dDAVP in dextrose, or s.c. 0.4 μg/kg
Description: Male beagle dogs weighing 9-12 kg were used in all experiments. Prior to each study, all animals were fasted overnight but were allowed access to water ad libitum.
Peroral administration: Enteric coated hard gelatin capsules, size 0el (0.78 ml) from [sequence], fill materials: 0.73 g of the drug delivery compositions containing:
Subcutaneous administration: 4 μg dDAVP/ml composition, 0.4 μg dDAVP/kg animal (Table 6F).
Plasma Factor VIII levels following administration of dDAVP was used as a pharmacodynamic response to the drug. Maximum response to dDAVP was determined by measuring plasma Factor VIII response levels following subcutaneous administration of dDAVP (Table 6F).
For studies involving capsule administration, a single capsule was given to each animal in each study. Blood samples were taken immediately prior to dDAVP administration (t=0), and at various times thereafter. Plasma levels of Factor VIII were determined using commercially available kits.

[3] = test system: delta-class of opioid receptor; details: Vaughn et al. 1989; cited from earlier work
[4] = Chemical stability of calcitonin in the formulation; type: physicochemical; details: formulation of Table 7.1

Compound: NC(=O)CC[C@@H]1NC(=O)[C@H](Cc2ccccc2)NC(=O)[C@H](Cc2ccc(O)cc2)NC(=O)CCSSC[C@@H](C(=O)N2CCC[C@H]2C(=O)N[C@H](CCCN=C(N)N)C(=O)NCC(N)=O)NC(=O)[C@H](CC(N)=O)NC1=O [desmopressin]
- pressor (vasoconstricting) activities [1]: lacks the pressor (vasoconstricting) activities of AVP or LVP
- oral bioavailability [2]: 0.1-0.2%
- response in plasma Factor VIII levels (in words) (plasma Factor VIII): dose-dependent increase in plasma Factor VIII levels

Compound: [D-Pen^2,5, PCl-Phe^4 ]-enkephalin
- interaction with the delta-class of opioid receptor [3]: interacts selectively with the delta-class of opioid receptor

Compound: calcitonin
- chemical stability of calcitonin in the formulation [4]: chemically stable in this formulation for at least two months
